Consider one compound from patent US20260174677A1, “METHODS OF TREATING INSULIN RESISTANCE AND ASSOCIATED DISORDERS” (The University of Melboune, priority 2022, published 2026).

Experiment [1] can be described thus: I.C.V. fluorosamine: hyperinsulinemic-euglycemic clamps in weight matched obese mice. It is filed as in vivo, mouse. The conditions noted are these: I.C.V. daily for 3 days. As to the method: For hyperinsulinemic-euglycemic clamps, mice were anesthetised under isoflurane and the right jugular vein was catheterised for infusions, as described previously by Dodd et al., 2018. Catheters were attached to an implant button (BMSW25, RWD Life Sciences, Shenzhen, China). Implant buttons were capped allowing for group mousing of mice and catheters were kept patent by flushing daily with 40 μL saline containing 200 units/mL heparin. On the day of the experiment, food was removed at 7:00 A.M. After 3.5 h fasting, a primed (1 min, 1.25 uCi/min) continuous infusion (0.05 uCi/min) of [3-3H]glucose (NET331A001MC, PerkinElmer, MA) was administered to measure whole-body glucose turnover, as described previously by Dodd et al., 2018. 90 minutes later, mice received a 40 mU/Kg insulin bolus over 10 mins which was followed by continuous insulin infusion (4 mU/kg/min in gelofusine). Euglycemia (˜8-10 mM blood glucose) was maintained by a variable infusion of a 30% glucose solution.
Tail blood samples were collected during steady-state conditions (Ra=Rd) and at 80, 90, 100, 110, and 120 min for determination of Rd and Ra, as described above. At 120 mins, a 13 uCi bolus of [^14C]-2-deoxy-D-glucose (NEC495A250UC, PerkinElmer, MA) was injected into the jugular vein, and blood was sampled at 122, 125, 135, 145, and 155 min. […]

Experiment [2] in a line: I.C.V. fluorosamine in mouse model of late-stage type-2 diabetes (HFHS plus low dose streptozotocin). It is filed as in vivo. The note with it: I.C.V. daily for 14 days, HFHS plus low dose streptozotocin mice. As to the method:
Mice were maintained on a 12 h light-dark cycle in a temperature-controlled high-barrier facility with free access to food and water per NHMRC Australian Code of Practice for the Care and Use of Animals. C57BL/6J and Balb/C mice were sourced from the Animal Resources Centre, Australian, whereas Agrp-IRES-Cre (Strain #:012899), db/db (strain #: 000697), Npy-GFP (Strain #:006417), Pomc-GFP (Strain #:009593), LSL-Cas9 (Strain #:028551), NZO (Strain #:002105) mice were sourced from Jackson Laboratories, USA. […]
Metabolic measurements were undertaken in the Melbourne Mouse Metabolic Phenotyping Platform (The University of Melbourne, Australia). […] The areas under glucose excursion curves were determined and expressed as mmol/1×min. Fasted (12 h fast) plasma insulin or glucose levels were determined using a Rat/Mouse Insulin ELISA (EZRMI-13K, Merck Millipore, CA) or an Accu-Check glucometer respectively. The HOMA-IR was calculated using the equation [(glucose×insulin)/405]. Adiposity was measured using TD-NMR minispec (Bruker Optics Inc., Billerica, MA). […]

Experiment [3] can be described thus: I.C.V. fluorosamine in obese AgRP-Cas9 mice given AAV-gScrambled or AAV-gIR. The note with it: 100 μg/animal I.C.V. daily for 10 days. Type of experiment: in vivo, mouse. As to the method: Metabolic measurements were undertaken in the Melbourne Mouse Metabolic Phenotyping Platform (The University of Melbourne, Australia). Glucose tolerance tests were performed on 6 h fasted conscious mice respectively by injecting D-glucose (2 mg/g of lean body mass and 1 mg/g lean mass for db/db and HFHS+STZ mice) into the peritoneal cavity and measuring glucose in tail blood immediately before and at 15, 30, 45, 60, 90 and 120 min after injection using an Accu-Check glucometer (Roche, Germany). The areas under glucose excursion curves were determined and expressed as mmol/1×min. Fasted (12 h fast) plasma insulin or glucose levels were determined using a Rat/Mouse Insulin ELISA (EZRMI-13K, Merck Millipore, CA) or an Accu-Check glucometer respectively. The HOMA-IR was calculated using the equation [(glucose×insulin)/405]. Adiposity was measured using TD-NMR minispec (Bruker Optics Inc., Billerica, MA).
Mice were acclimated for 24 h and then monitored for 48 h in an environmentally controlled Promethion Metabolic Screening System (Sable Systems International, NV) fitted with indirect open circuit calorimetry, food consumption and activity monitors to measure activity, caloric intake and energy expenditure. Respiratory quotients were calculated as the ratio of CO2 production over O2 consumption respiratory exchange ratio and energy expenditure was calculated using the Weir equation (Kcal h-1=60×(0.003941×VO2+0.001106×VCO2). To account for difference in body mass/composition energy expenditure was analysed and adjusted using ANCOVA using scripts available at the National Mouse Metabolic Phenotyping Centers (MMPC, Nashville, TN, USA) Energy Expenditure Analysis Page (https://www.mmpc.org/shared/regression.aspx).
Under isoflurane anaesthetic 12-week HFHS fed C57BL/6J or AgRP-Cas9 mice were implanted stereotaxically with guide cannulas into the right lateral ventricle (0.2 mm posterior, 1.0 mm lateral from bregma). Guide cannula was positioned 1.3 mm above the injection site (1 mm ventral to the surface of the skull). AgRP-Cas9 mice were treated with either AAV-gScrambled or AAV-gIR and underwent guide cannula placement 7 days post AAV administration. Mice were administered I.C.V. vehicle (ddH2O), fluorosamine (100 μg/animal/day or 250 μgl/animal/day) in a volume of 2 μl/animal and all compounds were delivered approximately 1 h before lights off […].

The mark [4] stands for this setting: control AAV-gScrambled AgRP-Cas9 mice.

With `CC(=O)NC1C(OC(C)=O)OC(COC(C)=O)[C@@H](F)C1OC(C)=O` (some centres unmarked) [fluorosamine, per-O-acetylated-4-F-N-acetylglucosamine], the “whole-body insulin sensitivity (GIR) in clamp” value in experiment [1] is recorded as “enhancement of whole-body insulin sensitivity”. The “remission of metabolic disease (daily blood glucose, glucose tolerance)” value in experiment [2] is “promote the remission of metabolic disease”. Besides, the “positive metabolic outcomes of treatment” value in experiment [3] (AAV-IR AgRP-Cas9 mice (AgRP insulin receptor disrupted)) was “mitigated, at least in part”. Moreover, in experiment [3] (setting [4]), the adiposity entry is listed as “reduced adiposity”, the body weight result is recorded as “promoted weight loss”, the caloric intake result is given as “attenuated caloric intake” and the energy expenditure result is “enhanced energy expenditure independently of ambulatory activity”. Besides, in experiment [3] (setting [4]), the glycaemic control entry is recorded as “improved glycaemic control”.
